Measured values as given in paper PMC4721142, “Randomized controlled studies on the efficacy of antiarthritic agents in inhibiting cartilage degeneration and pain associated with progression of osteoarthritis in the rat” (Arthritis Research & Therapy, 2016).
Read-outs that look alike come from different tables or passages of the source.

Tests used:
SW982 = test: Synovial toxicity (CellTiter-Glo), with or without TNF-α
Experimental: Viability was measured with the CellTiter-Glo luminescent viability assay (Promega). […] To more accurately predict the effects of the drugs on osteoarthritic synovium, cells were tested with or without TNF-α (20 ng/ml; BioSource).
In Vitro Toxicity Testing with a Synovial Cell Line
Compounds were tested for synovial toxicity using SW982 cells alone or in the presence of TNF as

RAW 264.7 cells = test: RANKL-mediated osteoclastogenesis / matrix resorption (Osteologic) assay; format: cell-based, murine; conditions: for minimal effective concentration: Mus musculus, RAW264.7, 168 h, read-out: Lowest inhibitory concentration, matrix resorption
Experimental: RAW 264.7 cells (American Type Culture Collection [ATCC], Manassas, VA, USA), a murine monocytic cell line that differentiates in the presence of RANKL, was used for measurements of osteoclastogenesis and osteoclast activity. Cells were amplified on nonadherent culture substratum in high-glucose Dulbecco’s modified Eagle’s medium (DMEM) containing 10 % fetal bovine serum (FBS) and penicillin-streptomycin in a 37 °C, 5 % CO2, humidified incubator and were passaged by manual dissociation. […] Plates were subsequently rinsed, bleached, dried, and analyzed for matrix degradation using a Nikon COOLSCOPE (Nikon Instruments, Melville, NY, USA). Matrix resorption was quantified using EclipseNet (Nikon Instruments)/Visiopharm (Visiopharm, Hørsholm, Denmark) software (see Additional file 1).
In Vitro Osteoclastogenesis
Osteoclastogenic activity was measured using BD osteologic plates and quantitation of the degree of bone matrix digestion on the plate surface. Images from the BD Osteologic assay used to […]
left pane depicts an example of a control well after removal of cells from matrix. Pseudocoloring of matrix (blue) and pits (green) is shown in the far right pane. A transparent overlay of the two images is shown in the center.
Figure 5 - Measurement of drug effects on osteoclastogenesis and osteoclast activity.
Comparisons were made between RANKL treated control wells and wells treated with both RANKL and […]
Agents were initially tested either during differentiation or post differentiation in the bone assay […]
(e.g., Figure 2, Sulfazalazine). […]
indicated (*/**: p < 0.05/0.01, unpaired t-test versus RANKL control). […]

[1] = system: Normal human articular chondrocytes; test: Cytotoxicity to chondrogenic pellets (CellTiter-Blue)
Experimental: Differentiated chondrogenic pellets were used both to test the ability of drugs to block MMP-13 activity and to test for drug toxicity. […] Supernatants were collected and analyzed for MMP-13 using an enzyme-linked immunosorbent assay (GE Healthcare Life Sciences, Little Chalfont, UK). Cytotoxicity to pellets was assessed using CellTiter-Blue (Promega).

[2] = Comparison of in vitro screens: overlapping effective and nontoxic range; conditions: for Overlapping effective and nontoxic range: inhibits with minimal or no toxicity to synovium or cartilage, overlapping range if effective in more than one assay;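 for all read-outs here: compares non-toxic ranges in synovial cells and chondrocytes with effective ranges against NFkB, MMP-13 and osteoclasts, giving their overlap as the predicted efficacy range in uM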
MMP-13 = MMP-13 ELISA on supernatants of TNF-α-treated chondrogenic pellets; format: cell-based, human; conditions: for Concentration inhibiting MMP-13: > = failed to inhibit up to highest concentration tested
NF-κB = test: TNF-α-stimulated NF-κB dual luciferase reporter assay in HeLa cells; format: cell-based
Experimental: NF-κB activity was assessed using a previously described dual plasmid reporter system. HeLa cells were transfected with NF-κB luciferase (Stratagene Products Division, Agilent Technologies, La Jolla, CA, USA) and pRLuc-N3 (PerkinElmer, Waltham, MA, USA) at an 8:1 ratio, respectively, in triplicate. […] NF-κB activity was measured 5 h later with a Dual-Glo Luciferase Assay (Promega, Madison, WI, USA) and an Omni plate reader (BMG Labtech, Cary, NC, USA). The ratio of firefly luciferase luminescence (NF-κB reporter) to Renilla luciferase luminescence (control) was normalized for the number of viable transfected cells. Data are reported as a ratio of activity of viable treated cells over the activity of cells not exposed to TNF-α or drug (fold stimulation above basal untreated levels of activity). The viability of HeLa cells with and without drug was also measured using a CellTiter-Glo luminescent viability assay (Promega). […]
NF-κB activity was assessed in HeLa cells that were transiently transfected with two reporter constructs as described in the manuscript. Agents were tested for their ability to block TNF- […]
Expression of the luciferase from the Renilla construct was used as a measure of viability, which was confirmed with a cytotoxicity assay (see later section).

HeLa cells = test: HeLa cell viability (CellTiter-Glo)
Experimental: NF-κB activity was assessed using a previously described dual plasmid reporter system. HeLa cells were transfected with NF-κB luciferase (Stratagene Products Division, Agilent Technologies, La Jolla, CA, USA) and pRLuc-N3 (PerkinElmer, Waltham, MA, USA) at an 8:1 ratio, respectively, in triplicate. […] NF-κB activity was measured 5 h later with a Dual-Glo Luciferase Assay (Promega, Madison, WI, USA) and an Omni plate reader (BMG Labtech, Cary, NC, USA). The ratio of firefly luciferase luminescence (NF-κB reporter) to Renilla luciferase luminescence (control) was normalized for the number of viable transfected cells. Data are reported as a ratio of activity of viable treated cells over the activity of cells not exposed to TNF-α or drug (fold stimulation above basal untreated levels of activity). The viability of HeLa cells with and without drug was also measured using a CellTiter-Glo luminescent viability assay (Promega).
In Vitro Hela Cell Drug Toxicity Testing
Potential drug toxicity was measured using a CTG assay and HeLa cells (Promega). Drugs not tested in
this assay were tested in either of the in vitro toxicity assays already presented (synovial or chondrocyte
Table 3- Drug toxicity measured using a CTG assay and HeLa cells.

[3] = published half-life; cited from earlier work

| Compound | Non-toxic range (Synovial) (SW982) | Effective range against Osteoclasts (RAW 264.7 cells) | Non-toxic range (Chondrocyte) [1] | Non-toxic & predicted range of efficacy [2] | Overlapping effective and nontoxic range [2] | t 1/2 [3] | also measured |
| --- | --- | --- | --- | --- | --- | --- | --- |
| Nc1cc(-c2ccncc2)c[nH]c1=O [Amrinone] | 1.25 to 40 µM | Not effective | 1.25 to 80 µM | ≥ 80 µM | 80 µM | – | MMP-13, effective concentration (MMP-13; number printed in the class column): 80; Effective range against NFkB (NF-κB): None |
| CC[C@@H]1/C=C(\C)C[C@H](C)C[C@H](OC)[C@H]2O[C@@](O)(C(=O)C(=O)N3CCCC[C@H]3C(=O)O[C@H](/C(C)=C/[C@@H]3CC[C@@H](O)[C@H](OC)C3)[C@H](C)[C@@H](O)CC1=O)[C@H](C)C[C@@H]2OC [Ascomycin] | 625000 to 4e+07 µM | – | 0.625 to 40 µM | 1.25 to 40 µM | 1.25 to 40 µM | – | minimal effective concentration (RAW 264.7 cells): 0.01 µM; Effective range against MMP-13 (MMP-13): Not effective; Concentration inhibiting MMP-13 (MMP-13): > 40 µM |
| Cc1ccc(S(=O)(=O)/C=C/C#N)cc1 [BAY-117082, BAY-11-7082] | 3 to 6 µM | ≥ 3 µM | 0.18 to 1.5 µM | None | 6 to 192 µM | – | Concentration with notable toxicity (SW982): 12 µM; Non-toxic concentrations (HeLa cells): 6 to 96 µM; Effective range against MMP-13 (MMP-13): ≥ 0.75 µM; Effective against NF κβ (p<0.05) (NF-κB): 12 to 96 µM; Effective range against NFkB (NF-κB): 12 to 96 µM |
| CC(=O)Oc1cccc2c1C(=O)c1c(OC(C)=O)cc(C(=O)O)cc1C2=O [Diacerein] | 1.5 to 54.3 µM | – | All toxic | None | Toxic to chondrocytes | – | Non-toxic concentrations (HeLa cells; (TNF), i.e. without TNF): 0 to 1.375e+07 µM; Non-toxic concentrations (HeLa cells; +TNF): 0 to 2.275e+07 µM; Toxic concentrations (p<0.05) (HeLa cells; with TNF): 50 to 110 M |
| CNC(=O)[C@H](Cc1c[nH]c2ccccc12)NC(=O)[C@@H](CC(=O)NO)CC(C)C [GM6001] | 0.33 to 25 µM | Not effective | 0.4 to 25 µM | – | – | – | MMP-13, effective concentration (MMP-13): 25 |
| O=C(c1ccccc1)c1ccc2n1CCC2C(=O)O (centres unmarked) [Keterolac] | 0.625 to 40 µM | Not effective | 3.17 to 200 µM | ≥ 12.5 µM | – | – | – |
| CC[C@@H]1/C=C(\C)C[C@H](C)C[C@H](OC)[C@H]2O[C@@](O)(C(=O)C(=O)N3CCCC[C@H]3C(=O)O[C@H](/C(C)=C/[C@@H]3CC[C@H](Cl)[C@H](OC)C3)[C@H](C)[C@@H](O)CC1=O)[C@H](C)C[C@@H]2OC [Pimecrolimus] | 0.625 to 40 µM | – | 0.625 to 40 µM | 2.5 to 40 µM | 2.5 to 20 µM | Ascomycin macrolactam derivative Like tacrolimus, a calcineurin inhibitor that inhibits release of inflammatory cytokines [97] t 1/2 = 30–100 h | minimal effective concentration (RAW 264.7 cells): 0.01 µM; Effective range against MMP-13 (MMP-13): Not effective; Concentration inhibiting MMP-13 (MMP-13): > 40 µM |
| Oc1ccc(/C=C/c2cc(O)cc(O)c2)cc1 [Resveratrol] | 3.12 to 100 µM | – | 3.12 to 200 µM | – | – | Suppresses IL-1β signaling and IL-1β-stimulated apoptosis in osteoarthritis [98] A natural inhibitor of NF-κB [99] t 1/2 = 1–3 h | Lowest inhibitory concentration, matrix resorption (RAW 264.7 cells): 6.25 µM; Effective range against NFkB (NF-κB): Not effective |
| O=C(O)c1cc(O)c2c(c1)C(=O)c1cccc(O)c1C2=O [Rhein] | 625000 to 4e+07 µM | Not effective | 0.625 to 40 µM | 40 µM | – | Anthraquinone-active metabolite of diacerein Reduces proliferation of chondrocytes and synoviocytes; inhibits NF-κB activation in vitro [101] t 1/2 = 4.3 h | Non-toxic concentrations (HeLa cells): 2.5 to 20 µM; Effective against NF κβ (p<0.05) (NF-κB): Only at toxic |
| O=C(O)c1cc(/N=N/c2ccc(S(=O)(=O)Nc3ccccn3)cc2)ccc1O [Sulfasalazine] | 12.5 to 400 µM | – | 12.5 to 800 µM | 50 to 400 µM | 150 to 1600 µM | NSAID t 1/2 = 5 – 10 h | – |
| CC1=C(CC(=O)O)c2cc(F)ccc2/C1=C\c1ccc([S+](C)[O-])cc1 (centres unmarked) [Sulindac] | 4.4 to 280 µM | – | 4.35 to 280 µM | 8.8 to 280 µM | 280 µM | NSAID t 1/2 = 7.8 h | Non-toxic concentrations (HeLa cells): 8.75 to 70 µM |
| CC1(C)O[C@@H]2C[C@H]3[C@@H]4CCC5=CC(=O)C=C[C@]5(C)[C@@]4(F)[C@@H](O)C[C@]3(C)[C@]2(C(=O)CO)O1 [Triamcinolone acetonide] | 0.7 to 250 µM | – | – | 31.25 to 500 µM | 250 to 500 µM | Steroid t 1/2 = 88 min | Lowest inhibitory concentration, matrix resorption (RAW 264.7 cells): 250 µM |
| COc1ccc(CCN(C)CCCC(C#N)(c2ccc(OC)c(OC)c2)C(C)C)cc1OC (centres unmarked) [Verapamil] | – | Not effective | – | – | – | – | – |
| Epigallocatechin-3-gallate [EGCG] | 690000 to 4.4e+07 µM | None? | 690000 to 4.4e+07 µM | 5.5 to 44 µM | 5.5 to 44 µM | – | Effective range against MMP-13 (MMP-13): ≥ 5.5 µM; Effective range against NFkB (NF-κB): 5.5 to 88 µM |
